Experimental data published in US20250257064A1, “TRIFLUOROMETHYL-SUBSTITUTED SULFONAMIDE AS BCL-2-SELECTIVE INHIBITOR” (Chia Tai Tianqing Pharmaceutical Group Co., Ltd., priority 2018, published 2025).

Key:
BCL-2/BAK = molecular target: T1, BCL-2/BAK (Homo sapiens, UniProt P10415); assay: Screening on inhibitory activity for BCL-2/BAK binding (Cisbio HTRF kit)
T1 construct: purchased Cisbio
Summary of the method: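 HTRF competition assay: Tag1-BCL-2 and Tag2-BAK working dilutions were 5 nM and 120 nM. Compound (200–0.0488 nM final, 4-fold, 7 points, duplicates) was incubated with the proteins for 15 min at 25 °C, then with Eu-cryptate/XL665 antibodies for ≥2 h at 25 °C. IC50 was derived from a four-parameter fit.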

BCL-XL/BAK = molecular target: T2, BCL-XL/BAK (Homo sapiens, UniProt Q07817); assay: Screening on inhibitory activity for BCL-XL/BAK binding (Cisbio HTRF kit)
T2 construct: purchased Cisbio
T2 sequence (Q07817 whole entry, species assumed): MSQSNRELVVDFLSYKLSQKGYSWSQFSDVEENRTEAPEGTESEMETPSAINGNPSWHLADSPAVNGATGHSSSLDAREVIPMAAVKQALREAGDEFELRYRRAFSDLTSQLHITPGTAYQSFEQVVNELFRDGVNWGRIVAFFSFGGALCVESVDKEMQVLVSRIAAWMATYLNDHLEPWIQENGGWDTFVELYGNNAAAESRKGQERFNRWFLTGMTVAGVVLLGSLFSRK
Summary of the method: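 Tag1-BCL-XL and Tag2-BAK (2 nM and 80 nM before mixing) were combined with compounds at final 2000–0.488 nM (4-fold, 7 points, duplicates) for 15 min at 25° C. Eu3+ anti-Tag1 and XL665 anti-Tag2 were then added for ≥2 h at 25° C. HTRF (620/665 nm) gave IC50 by four-parameter fit.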

[1] = In vitro stability in mouse liver microsomes; format: in vitro ADME; settings: 1 μM
Experimental: (§1) Experimental Example 3: In Vitro Stability in Liver Microsome
(§2) 300 μL of the final incubation system contains 30 μL of liver microsomes (protein concentration: 5 mg/mL), 30 μL of NADPH+MgCl2, 3 μL of the test compound (in acetonitrile), and 237 μL of PBS buffer (pH 7.4), wherein the proportion of the organic solvent (acetonitrile) is 1% (volume ratio). Two duplicate samples were prepared for each specie (mouse, rat and human), and each sample was 0.3 mL. Each tube which was added with 270 μL of a mixed solution of substrate and enzyme, and NADPH, after being pre-incubated at 37° C. for 5 min, was added with 30 μL of NADPH+MgCl2 and mixed. Then 50 μL of the mixture was taken at 0 min, 15 min, 30 min and 60 min, and added with 300 μL of glacial acetonitrile containing an internal standard to terminate the reaction.
(§3) 50 μL of the incubated sample was added with 300 μL of glacial acetonitrile containing an internal standard (20 ng/mL diazepam) for precipitation, vortexed for 5 min, and centrifuged (13,000 rpm, 20° C.) for 10 min. 70 μL of supernatant was taken and diluted with 70 μL of ultrapure water. After being mixed well, 1 μL of the resulting sample was injected for analysis.

[2] = In vitro stability in rat liver microsomes; format: in vitro ADME; settings: 1 μM
Experimental: as §1, §2, §3

[3] = In vitro stability in human liver microsomes; format: in vitro ADME; settings: 1 μM
Experimental: as §1, §2, §3

[4] = system: human B-cell leukemia RS4;11 subcutaneous xenograft; assay: Pharmacodynamics in human B-cell leukemia RS4;11 subcutaneous xenograft model; format: in vivo, NOD/SCID mice; settings: Day 17 after the end of administration
Source text: Experimental Example 5: Pharmacodynamics of Compounds in Human B-Cell Leukemia RS4; 11 Subcutaneous Xenograft Model
NOD/SCID mice, female, 9-10 weeks old (ages upon tumor cell grafting), body weight of 16.3-22.0 g, purchased from Beijing AniKeeper Biotech Co., Ltd.; production license number: SCXK (Jing) 2017-0006, and animal certification number: 11402400013155. Breeding environment: SPF grade. Mice were grafted subcutaneously on the right anterior dorsal side with 1×10^7 RS4;11 cells. The day of grafting was defined as day 0. When the mean tumor volume was 240 mm^3, the mice were randomly grouped according to the tumor size. The administration was performed as per Table 5 below.
Clinical symptoms observed during the experiment were recorded in the raw data. The calculation formula for tumor volume: Tumor volume (mm^3)=½×(a×b^2) (where a represents long diameter and b represents short diameter). The data were collected using StudyDirector™ software (version No. 3.1.399.19, supplier: Studylog System, Inc., S.San Francisco, CA, USA) in the experiment, including measurements of the long and short diameters of the tumor and weighing results of the animals. The raw data obtained from a balance and a vernier caliper were directly imported into the software, and any change in the data was recorded. Relative tumor proliferation rate (T/C %) refers to the percentage of the relative tumor volume or tumor weight of the treatment and control groups at a certain time point. The calculation formula is as follows:
T/C %=TRTV/CRTV×100% (TRTV: mean RTV for treatment group; CRTV: mean RTV for vehicle control group; RTV=Vt/V0, where V0 is the tumor volume of the animal upon grouping, and Vt is the tumor volume of the animal after treatment).
(T and C are the relative tumor volume (RTV) or tumor weight (TW) at a particular time point for the treatment and control groups, respectively).
All experimental results were expressed as mean tumor volume±SEM (standard error of mean). The relative tumor volume of the treatment group was compared with that of the control group for any significant difference by the independent sample T test. All data were analyzed using SPSS 18.0. p<0.05 was defined as a significant difference.

T1 sequence (P10415 whole entry, species assumed): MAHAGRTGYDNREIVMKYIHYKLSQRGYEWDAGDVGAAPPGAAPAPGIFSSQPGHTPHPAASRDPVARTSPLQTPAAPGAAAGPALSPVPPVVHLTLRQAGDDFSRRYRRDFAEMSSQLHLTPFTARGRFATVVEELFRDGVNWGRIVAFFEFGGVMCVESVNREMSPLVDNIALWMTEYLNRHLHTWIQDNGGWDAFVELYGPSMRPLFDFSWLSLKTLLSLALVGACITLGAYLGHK

SMILES | IC50 (BCL-2/BAK) | IC50 (BCL-XL/BAK) | Mouse Residual content after 60 min (%) [1] | Rat Residual content after 60 min (%) [2] | Human Residual content after 60 min (%) [3] | Relative tumor volume (x ± S) ([4]; 25 mg/kg p.o. one dose) | T/C (%) ([4]; 25 mg/kg p.o. one dose) | TGI (%) ([4]; 25 mg/kg p.o. one dose) | Tumor volume (x ± S) ([4]; 25 mg/kg p.o. one dose) | Relative tumor volume (x ± S) ([4]; 50 mg/kg p.o. one dose) | T/C (%) ([4]; 50 mg/kg p.o. one dose) | TGI (%) ([4]; 50 mg/kg p.o. one dose) | Tumor volume (x ± S) ([4]; 50 mg/kg p.o. one dose)
CC1(C)CCC(CN2CCN(c3ccc(C(=O)NS(=O)(=O)c4ccc(NCC5CCOCC5)c([N+](=O)[O-])c4)c(Oc4cnc5[nH]ccc5c4)c3)CC2)=C(c2ccc(C(F)(F)F)cc2Cl)C1 [Compound 1-1, 4-(4-{[2-(2-chloro-4-trifluoromethylphenyl)-4,4-dimethylcyclohex-1-enyl]methyl}-piperazin-1-yl)-N-({3-nitro-4-[(tetrahydro-2H-pyran-4-ylmethyl)amino]phenyl}sulfonyl)-2-(1H-pyrrolo[2,3-b]pyridin-5-yloxy)-benzamide] | 2.7 nM | 133 nM | 78.9% | 88.4% | 70.8% | 4.39 ± 0.83 | 51.5% | 48.5% | 1024.97 ± 160.59 mm^3 | 1.92 ± 0.36 | 22.5% | 77.5% | 465.78 ± 95.68 mm^3
CC1(C)CCC(CN2CCN(c3ccc(C(=O)NS(=O)(=O)c4ccc(NC[C@H]5COCCO5)c([N+](=O)[O-])c4)c(Oc4cnc5[nH]ccc5c4)c3)CC2)=C(c2ccc(C(F)(F)F)cc2Cl)C1 [Compound 8-1] | 2.8 nM | 155 nM | 73.9% | 90.9% | 86.3% | – | 29.8% | 70.2% | 600.39 ± 32.88 mm^3 | – | – | – | –
